Results on four compounds are retold here after patent publication US20230330254A1 (Regeneron Pharmaceuticals, Inc., priority 2022, published 2023).

Assay [1] concerns HEK293/CRE-Luc cells. The assay is described as follows: Luciferase reporter assay, HEK293/CRE-Luc cells without GLP1R (Example 17). The assay is classed as cell-based, human. As to conditions: HEK293/CRE-Luc cells without hGLP1R, payloads and linker-payloads; for EC50: read-out: EC50. The text has this: (§1) To test the activity of GLP1R agonist payloads, GLP1R agonist linker-payloads (LPs), and anti-GLP1R antibody tethered drug conjugates (ATDCs) of the invention, a cell-based cAMP responsive luciferase reporter assay was developed. To generate the assay cell line, the firefly luciferase gene was placed under the control of a cAMP response element (CRE) located upstream of a minimal promoter and transfected into HEK293 cells and referred to herein as HEK293/CRE-Luc cells.
(§2) Three-fold serial dilutions of free payloads or LPs were prepared in 100% DMSO, transferred to fresh assay media, and added to the cells at a final constant DMSO concentration of 0.2%. The last well in the plate served as a blank control containing only the assay media and 0.2% DMSO (untreated well) and was plotted as a continuation of the 3-fold serial dilution. Four to six hours later, luciferase activity was determined after the addition of One-Glo™ reagent (Promega, Cat #E6130) to each well. Relative light units (RLUs) were measured on an Envision luminometer (PerkinElmer) and EC50 values were determined using a four-parameter logistic equation over a 12-point dose response curve (GraphPad Prism). The signal to noise (S/N) was determined by taking the ratio of the highest RLU on the dose response curve to the RLU in the untreated wells. Data was generated across several experiments (A-E) with M2361 serving as a reference standard in each experiment to calculate the payload relative potency ((M2361 EC50/payload EC50)*100)) and relative S/N ((payload SN/M2361 SN)*100)).

The target of assay [2] is T1, human GLP1R (Homo sapiens, UniProt P43220). In words: Luciferase reporter assay, HEK293/CRE-Luc/hGLP1R (Example 17). The assay is classed as cell-based. Details: engineered to express full-length human GLP1R, cynomolgus GLP1R; expressed in transfected cells; host or cells: HEK293/CRE-Luc. As to conditions: HEK293/CRE-Luc/hGLP1R; for S/N: highest RLU / RLU of untreated wells; for EC50: payloads and linker-payloads, experiments A-E, M2361 repeated in each, read-out: EC50; for Relative Potency (% M2361 EC50) / Relative Signal:Noise (% M2361): relative to M2361 of the same experiment.
Source text: as §1, §2

Assay [3] concerns the target T1, human GLP1R. The assay is described as follows: Human GLP1R cAMP accumulation assay. The assay is classed as cell-based. The arrangement: HEK293 cells over-expressing full length human GLP-1R were utilized; expressed in transfected cells; host or cells: HEK293 (HEK293/hGLP1R). As to conditions: HEK293/hGLP1R cells; Table 4; read-out: cAMP EC50. Here is the method: 8.1 Human GLP1R cAMP Accumulation Assay (Cyclic AMP Determination)
The functional activity of the test compounds for agonizing GLP1R were evaluated using a cell-based assay. For the assay, HEK293 cells over-expressing full length human GLP-1R were utilized and the downstream cAMP accumulation was assessed as a measure of human GLP-1R stimulation. […] Diluted compounds were transferred to OptiPlates (100 nL/well) using an Echo liquid handler. HEK293/hGLP1R cells were thawed in 37° C. water-bath, washed 2 times with HBSS and re-suspended in assay buffer (HBSS+5 mM HEPES+500 μM IBMX+0.1% BSA). […] After centrifugation, the assay plate was incubated at 23° C. for 30 min. The reaction was terminated by adding 10 μL of lysis buffer containing D2-cAMP and a cAMP-antibody from the cyclic AMP immunoassay kit (Cisbio, Cat #62AM4PEJ). […] The levels of cAMP per well were calculated using a standard curve generated by GraphPad Prism. Percent activity was calculated according to the formula (% Activity=100%*(cAMP level-LC)/(HC-LC)). EC50 values were fitted from a four-parameter logistic equation over a 10-point response curve (GraphPad Prism).
In general terms: Changes in cAMP serve as a functional read-out for many G protein-coupled receptors.

*1 amine or outer side, *2 acyl side, *3 side chain or, on linkers, in order; H or OH if unused. Where a SMILES comes first, the peptide text is derived from it. [ ]: non-standard residue; d: D form. The star is where a group is joined. Bip(2'-Et-4'-O(CH2)4NH2) = CCc1cc(OCCCCN[*:3])ccc1-c1ccc(C[C@H](N[*:1])C(=O)[*:2])cc1; Malonyl(2,2-Me2,histaminyl) = CC(C)(C(=O)NCCc1cnc[nH]1)C(=O)*; X7 = O=C(NCCOCCOCCOCCOC(=O)*)OC[C@@H]1[C@@H]2CCC#CCC[C@@H]21; Nva(5-(3,5-Me2Ph)) = Cc1cc(C)cc(CCC[C@H](N)C(=O)O)c1; Ala(1H-tetrazol-5-yl) = N[C@@H](Cc1nnn[nH]1)C(=O)O; αMePhe(2-F) = C[C@](N)(Cc1ccccc1F)C(=O)O Where only a bound is given, the exact number is not on record here.

T1 sequence (P43220 24-463): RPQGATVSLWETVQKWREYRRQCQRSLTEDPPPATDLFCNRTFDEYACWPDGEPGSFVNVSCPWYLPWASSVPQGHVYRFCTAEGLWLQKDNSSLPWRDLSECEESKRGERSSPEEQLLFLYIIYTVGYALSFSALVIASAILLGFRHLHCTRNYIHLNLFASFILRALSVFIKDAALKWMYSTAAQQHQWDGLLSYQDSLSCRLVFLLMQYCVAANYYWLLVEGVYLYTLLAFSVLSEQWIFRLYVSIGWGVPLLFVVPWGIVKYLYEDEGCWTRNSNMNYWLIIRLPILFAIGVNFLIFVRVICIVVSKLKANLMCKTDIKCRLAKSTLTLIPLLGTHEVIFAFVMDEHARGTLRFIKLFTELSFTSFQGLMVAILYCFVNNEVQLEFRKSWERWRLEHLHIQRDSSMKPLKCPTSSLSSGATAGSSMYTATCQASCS

Consider `CCc1cc(OC)ccc1-c1ccc(C[C@H](NC(=O)[C@H](CC(=O)O)NC(=O)[C@H](CO)NC(=O)C(NC(=O)[C@](C)(Cc2ccccc2F)NC(=O)[C@@H](NC(=O)CNC(=O)[C@H](Cc2nn[nH]n2)NC(=O)C(C)(C)C(=O)NCCc2cnc[nH]2)[C@@H](C)O)[C@@H](C)O)C(=O)N[C@@H](CCCc2ccc(OCCCCN)cc2)C(N)=O)cc1` (stereo in doubt) [P24], for which, in assay [1], the S/N was found to be 1.0 and the EC50 was over 200 nM. In assay [2], the S/N is listed as 65.0, the EC50 worked out at 0.0316 nM, the “Relative Potency (% M2361 EC50)” value came out at 16.8% and the “Relative Signal:Noise (% M2361)” value was 98.9%. Also, in assay [3], the concentration giving a half-maximal response (EC50) was determined as 0.136 nM.
Turning to `CCc1cc(OCCCCNC(=O)OCCOCCOCCOCCNC(=O)OC[C@@H]2[C@@H]3CCC#CCC[C@@H]32)ccc1-c1ccc(C[C@H](NC(=O)[C@H](CC(=O)O)NC(=O)[C@H](CO)NC(=O)[C@@H](NC(=O)[C@](C)(Cc2ccccc2F)NC(=O)[C@@H](NC(=O)CNC(=O)[C@H](Cc2nn[nH]n2)NC(=O)C(C)(C)C(=O)NCCc2cnc[nH]2)[C@@H](C)O)[C@@H](C)O)C(=O)N[C@@H](CCCc2cc(C)cc(C)c2)C(N)=O)cc1` [LP5, BCN-PEG4-carba-mate P9] ({Malonyl(2,2-Me2,histaminyl)}-[Ala(1H-tetrazol-5-yl)]GT[αMePhe(2-F)]TSD[Bip(2'-Et-4'-O(CH2)4NH2)](X7)[Nva(5-(3,5-Me2Ph))]-NH2), in assay [1], the S/N is on record as 1.8 and the concentration giving a half-maximal response (EC50) is over 200 nM. In addition, in assay [2], the S/N is recorded as 54.8, the EC50 was determined as 0.0242 nM, the “Relative Potency (% M2361 EC50)” value came out at 21.9% and the “Relative Signal:Noise (% M2361)” value is 83.4%. Besides, the 50% effective concentration (EC50) in assay [3] was found to be 0.044 nM.
Take `CCc1cc(OCCCCNC(=O)[C@H](CO)NC(=O)CNC(=O)CNC(=O)CNC(=O)CNC(=O)CCC(=O)N2Cc3ccccc3C#Cc3ccccc32)ccc1-c1ccc(C[C@H](NC(=O)[C@H](CC(=O)O)NC(=O)[C@H](CO)NC(=O)[C@@H](NC(=O)[C@](C)(Cc2ccccc2F)NC(=O)[C@@H](NC(=O)CNC(=O)[C@H](Cc2nn[nH]n2)NC(=O)C(C)(C)C(=O)NCCc2cnc[nH]2)[C@@H](C)O)[C@@H](C)O)C(=O)N[C@@H](CCCc2cc(C)cc(C)c2)C(N)=O)cc1` [LP6, DIBAC- suc-G4S- P9]: in assay [1], the S/N worked out at 1.4 and the EC50 is over 200 nM. For the same compound, in assay [2], the S/N stood at 65.7, the EC50 came to 0.0251 nM, the “Relative Potency (% M2361 EC50)” value is 21.2% and the “Relative Signal:Noise (% M2361)” value is listed as 99.9%. In addition, the EC50 in assay [3] was 0.436 nM.
For the compound `CCc1cc(OCCCCN)ccc1-c1ccc(C[C@H](NC(=O)[C@H](CC(=O)O)NC(=O)[C@H](CO)NC(=O)[C@@H](NC(=O)[C@](C)(Cc2ccccc2F)NC(=O)[C@@H](NC(=O)CNC(=O)[C@@H](N)CCC(N)=O)[C@@H](C)O)[C@@H](C)O)C(=O)N[C@@H](CCCc2cc(C)cc(C)c2)C(N)=O)cc1` [P20, (3S)-4-[[(1S)-1-[[4-[4-(4-aminobutoxy)-2-ethyl-phenyl]phenyl]methyl]-2-[[(1S)-1-carbamoyl-4-(3,5-dimethylphenyl)butyl]amino]-2-oxo-ethyl]amino]-3-[[(2S)-2-[[(2S,3R)-2-[[(2S)-2-[[(2S,3R)-2-[[2-[[(2S)-2,5-diamino-5-oxopentanoyl]amino]acetyl]amino]-3-hydroxy-butanoyl]amino]-3-(2-fluorophenyl)-2-methyl-propanoyl]amino]-3-hydroxybutanoyl]amino]-3-hydroxy-propanoyl]amino]-4-oxo-butanoic acid], the concentration for a half-maximal effect (EC50) in assay [3] was found to be 0.37 nM.

Broadly, the EC50 is the concentration at which the effect is half-maximal.
